Results published in EP4810484A1, “NEUROACTIVE ANDROGEN RECEPTOR MODULATOR AND USE THEREOF” (Endochem Pharmaceuticals (Beijing) Co., Ltd., priority 2023, dated 2025).

Tests used:
[1] = Mouse blood-brain barrier permeation assay (LC-MS/MS of serum and brain); format: in vivo, C57BL/6J mice; conditions: for concentrations of the compound detected in serum and brain (in words): 20 mg/kg intraperitoneal
Procedure: Mouse blood-brain barrier permeation assay
Blood was collected by decapitation from the mice (each time point/3 mice) at the following time points: 30 min, 1 h, 2 h, 3 h, 4 h, 8 h, and brain tissue and blood were harvested at 12 h, 24 h, 36 h, 48 h and 72 h. • (3) When collecting serum, heparin sodium blood collection tubes were used.
The supernatant was filtered through a 0.22 µm filter and analyzed by LC-MS/MS.

[2] = Log P (Table 1, no method described)
[3] = biological target: T1, recombinant human androgen receptor (AR) protein (Homo sapiens, UniProt P10275); experiment: Small molecule-protein affinity (protein-ligand coupling) assay, Biacore T200 SPR; format: binding; conditions: summary of Table 1
T1 construct: RPB252Hu03, Ile673-His918 with N-terminal His Tag; His tag (N); purchased CLOUD-CLONE CORP; WUHAN RPB252Hu03
T1 sequence (P10275 673-918): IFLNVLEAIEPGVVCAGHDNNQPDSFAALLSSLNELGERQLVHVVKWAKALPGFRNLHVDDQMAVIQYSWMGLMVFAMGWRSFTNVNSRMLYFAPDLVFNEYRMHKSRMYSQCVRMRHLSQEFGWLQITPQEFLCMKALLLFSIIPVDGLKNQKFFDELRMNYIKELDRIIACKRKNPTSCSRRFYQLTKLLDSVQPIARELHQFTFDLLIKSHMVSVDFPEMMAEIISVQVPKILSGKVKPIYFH

androgen receptors = biological target: T2, androgen receptors (Homo sapiens, UniProt P10275); experiment: Androgen Receptor Reporter Gene Assay in plasmid-transfected HEK293T cells; format: cell-based; conditions: HEK-293T
T2 construct: expressed in transfected cells; host or cells: HEK293T (ATCC, CRL-3216)
T2 sequence (P10275 1-920): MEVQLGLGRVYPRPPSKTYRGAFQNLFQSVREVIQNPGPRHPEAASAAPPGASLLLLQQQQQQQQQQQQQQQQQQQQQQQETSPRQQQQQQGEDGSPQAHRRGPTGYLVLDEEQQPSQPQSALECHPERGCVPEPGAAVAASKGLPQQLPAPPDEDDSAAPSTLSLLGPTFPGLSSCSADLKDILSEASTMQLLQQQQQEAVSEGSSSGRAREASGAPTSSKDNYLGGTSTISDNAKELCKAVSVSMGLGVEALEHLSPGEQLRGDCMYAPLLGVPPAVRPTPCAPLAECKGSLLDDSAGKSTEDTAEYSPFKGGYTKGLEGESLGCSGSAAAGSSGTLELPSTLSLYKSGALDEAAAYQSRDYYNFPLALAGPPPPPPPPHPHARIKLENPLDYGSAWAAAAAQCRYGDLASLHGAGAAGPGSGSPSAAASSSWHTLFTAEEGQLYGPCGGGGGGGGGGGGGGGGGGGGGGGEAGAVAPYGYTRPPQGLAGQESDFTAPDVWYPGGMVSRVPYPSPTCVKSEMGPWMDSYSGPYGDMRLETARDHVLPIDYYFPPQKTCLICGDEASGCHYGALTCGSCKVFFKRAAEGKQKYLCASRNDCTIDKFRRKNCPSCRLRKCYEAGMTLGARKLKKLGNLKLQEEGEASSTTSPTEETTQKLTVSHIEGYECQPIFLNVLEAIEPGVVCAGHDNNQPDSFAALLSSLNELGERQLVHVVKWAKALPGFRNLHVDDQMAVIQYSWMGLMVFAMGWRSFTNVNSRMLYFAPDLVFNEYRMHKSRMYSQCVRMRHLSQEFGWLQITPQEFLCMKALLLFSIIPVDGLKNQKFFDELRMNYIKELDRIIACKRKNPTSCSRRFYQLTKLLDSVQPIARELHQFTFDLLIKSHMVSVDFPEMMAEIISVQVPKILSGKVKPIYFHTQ

Row | Structure (SMILES) | concentrations of the compound detected in serum and brain (in words) [1] | logP [2] | other results
1 | C[C@](O)(COc1ccc(C#N)cc1)C(=O)Nc1cnc(C#N)c(C(F)(F)F)c1 [Example 3, (S)-N-(6-cyano-5-(trifluoromethyl)pyridin-3-yl)-3-(4-cyanophenoxy)-2-hydroxy-2-methylpropionamide] | certain concentrations of the compound were detected in serum and brain up to 72 h after administration | 2.53 | 
2 | C[C@@](COc1ccc(C#N)nc1)(OC(=O)c1cccnc1)C(=O)Nc1ccc(C#N)c(C(F)(F)F)c1 [Example 11, (S)-1-((4-cyano-3-(trifluoromethyl)phenyl)amino)-3-((6-cyanopyridin-3-yl)oxy)-2-methyl-1-oxopropan-2-yl nicotinate] |  | 3.32 | 
3 | CN(C)CCC(=O)O[C@@](C)(COc1ccc(C#N)cc1)C(=O)Nc1cnc(C#N)c(C(F)(F)F)c1 [Example 14, (S)-1-((6-cyano-5-(trifluoromethyl)pyridin-3-yl)amino)-3-(4-cyanophenoxy)-2-methyl-1-oxopropyl-2-yl 3-(dimethylamino)propanate] |  | 2.86 | 
4 | C[C@](O)(Cn1cnc(C(F)(F)F)cc1=O)C(=O)Nc1cnc(C#N)c(C(F)(F)F)c1 [Example 1] |  | 2.62 | 
5 | CC(=O)O[C@@](C)(COc1ccc(C#N)cc1)C(=O)Nc1cnc(C#N)c(C(F)(F)F)c1 [Example 24, (S)-1-((6-cyano-5-(trifluoromethyl)pyridin-3-yl)amino)-3-(4-cyanophenoxy)-2-methyl-1-oxopropan-2-yl acetate] |  | 2.76 | bioavailability in the brain ([1]; compared with the compound of Example 3): significantly improved
6 | CN1CCC(C(=O)O[C@@](C)(COc2ccc(C#N)cc2)C(=O)Nc2cnc(C#N)c(C(F)(F)F)c2)CC1 [Example 19, (S)-1-((6-cyano-5-(trifluoromethyl)pyridin-3-yl)amino)-3-(4-cyanophenoxy)-2-methyl-1-oxopropyl-2-yl-1-methylpiperidine-4-carboxylate] |  | 3.2 | 
7 | C[C@](O)(COc1ccc(C#N)nc1)C(=O)Nc1cnc(C#N)c(C(F)(F)F)c1 [Example 5, (S)-N-(6-cyano-5-(trifluoromethyl)pyridin-3-yl)-3-((6-cyanopyridin-3-yl)oxy)-2-hydroxy-2-methylpropionamide] |  | 1.61 | 
8 | CCCS(=O)(=O)O[C@@](C)(COc1ccc(C#N)cc1)C(=O)Nc1cnc(C#N)c(C(F)(F)F)c1 [Example 17, (S)-1-((6-cyano-5-(trifluoromethyl)pyridin-3-yl)amino)-3-(4-cyanophenoxy)-2-methyl-1-oxopropan-2-yl propane-1-sulfonate] |  | 3.07 | 
9 | C[C@](O)(Cn1cnc(C(F)(F)F)cc1=O)C(=O)Nc1ccc(C#N)c(C(F)(F)F)c1 [Example 2] |  | 3.53 | 
10 | C[C@](O)(COc1ccc(C#N)cc1)C(=O)Nc1ccc(C#N)c(C(F)(F)F)c1 [Ostarine, reference compound] |  | 3.49 | affinity to the androgen receptor proteins (in words) [3]: no binding affinity; Emax (androgen receptors): 78.4%
11 | C[C@](O)(COc1ccc(C#N)nc1)C(=O)Nc1ccc(C#N)c(C(F)(F)F)c1 [Example 4, (S)-N-(4-cyano-3-(trifluoromethyl)phenyl)-3-((6-cyanopyridin-3-yl)oxy)-2-hydroxy-2-methylpropionamide] |  | 2.53 | 
12 | CN1C=CCC(C(=O)O[C@@](C)(COc2ccc(C#N)cc2)C(=O)Nc2ccc(C#N)c(C(F)(F)F)c2)=C1 [Example 35, (S)-1-((4-cyano-3-(trifluoromethyl)phenyl)amino)-3-(4-cyanophenoxy)-2-methyl-1-oxopropan-2-yl 1-methyl-1,4-dihydropyridine-3-carboxylate] |  | 4.45 | 
13 | C[C@@](COc1ccc(C#N)cc1)(OC(=O)c1ccccc1)C(=O)Nc1cnc(C#N)c(C(F)(F)F)c1 [Example 26, (S)-1-((6-cyano-5-(trifluoromethyl)pyridin-3-yl)amino)-3-(4-cyanophenoxy)-2-methyl-1-oxopropan-2-yl benzoate] | lower concentrations of the compound and higher concentrations of metabolites were detected in serum and brain | 4.65 | affinity to the androgen receptor proteins (in words) [3]: strong affinity
14 | CCC(=O)O[C@@](C)(COc1ccc(C#N)cc1)C(=O)Nc1cnc(C#N)c(C(F)(F)F)c1 [Example 28, (S)-1-((6-cyano-5-(trifluoromethyl)pyridin-3-yl)amino)-3-(4-cyanophenoxy)-2-methyl-1-oxopropan-2-yl-propionate] | lower concentrations of the compound and higher concentrations of metabolites were detected in serum and brain |  | 
15 | CC(C)C(=O)O[C@@](C)(COc1ccc(C#N)cc1)C(=O)Nc1cnc(C#N)c(C(F)(F)F)c1 [Example 21, (S)-1-((6-cyano-5-(trifluoromethyl)pyridin-3-yl)amino)-3-(4-cyanophenoxy)-2-methyl-1-oxopropan-2-yl isobutyrate] | lower concentrations of the compound and higher concentrations of metabolites were detected in serum and brain |  | 
16 | C[C@](O)(COc1ccc(C#N)c(F)c1)C(=O)Nc1cnc(C#N)c(C(F)(F)F)c1 [Example 8, (S)-3-(4-cyano-3-fluorophenoxy)-N-(6-cyano-5-(trifluoromethyl)pyridin-3-yl)-2-hydroxy-2-methylpropionamide] | certain concentrations of the compound were detected in serum and brain up to 72 h after administration |  | 
17 | C[C@@](COc1ccc(C#N)cc1)(OC(=O)c1cccnc1)C(=O)Nc1cnc(C#N)c(C(F)(F)F)c1 [Example 13, (S)-1-((6-cyano-5-(trifluoromethyl)pyridin-3-yl)amino)-3-(4-cyanophenoxy)-2-methyl-1-oxopropan-2-yl nicotinate] | lower concentrations of the compound and higher concentrations of metabolites were detected in serum and brain | 3.32 | 
18 | C[C@@](COc1ccc(C#N)cc1)(OC(=O)CCCC[C@@H]1CCSS1)C(=O)Nc1cnc(C#N)c(C(F)(F)F)c1 [Example 15, (S)-1-((6-cyano-5-(trifluoromethyl)pyridin-3-yl)amino)-3-(4-cyanophenoxy)-2-methyl-1-oxopropyl-2-yl 5-((R)-1,2-dithiolan-3-yl) pentanoate] | no effective concentration of the compound was detected in serum and brain |  | 
